Literature values, collected in patent publication US20040180086A1 (priority 2002, published 2004).

System: decarboxylation of peripheral levodopa
Conditions: carbidopa administered in combination with levodopa

## C[C@@](Cc1ccc(O)c(O)c1)(NN)C(=O)O [Carbidopa, S-α-hydrazino-3,4-dihydroxy-α-methylbenzenepropanoic acid monohydrate]
  reduction of the amount of levodopa required to produce a given response: about 75%
